≈ marks a conversion by molar mass, not a printed value.
Key:
[1] = test system: BS-C-1 cells; assay: Cell viability, MTT assay; assay type: cell-based
Text: For the negative control, cells were killed with 1% w/v SDS.

[2] = test system: APV-luciferase; assay type: cell-based, avian pneumovirus (APV)
[3] = test system: RSV; conditions: HeLa cells, Kawana 1987, Watanabe 1994; cited from earlier work
[4] = test system: APV; assay: microbe, parasite or virus in culture; assay type: cell-based, avian pneumovirus (APV)
[5] = test system: RSV; assay: microbe, parasite or virus in culture; assay type: cell-based, human respiratory syncytial virus (RSV)
[6] = test system: RSV; assay: Reduction in plaque number on BS-C-1 cells; assay type: cell-based, human respiratory syncytial virus (RSV); conditions: RSV on BS-C-1 cells; 30 μg/ml drug

| SMILES | Toxicity to the cells ([1]; 100 ng/ml, FIG. 3D) | Antiviral activity against APV (luciferase reporter) ([2]; 100 ng/ml, FIG. 3C) | EC50, published values [3] | Effect on CAT expression ([4]; APV, lowest concentration tested, 10 μg/ml, FIG. 1) | EC50 ([4]; avian metapneumovirus, BSC-1, read-out: EC50 (50% effective concentration)) | EC90 ([4]; avian metapneumovirus, BSC-1, read-out: EC90 (90% effective concentration)) | CAT expression ([5]; RSV, 50 μg/ml, FIG. 1) | Effect on CAT expression ([5]; RSV, lowest concentration tested, 10 μg/ml, FIG. 1) | EC50 ([5]; human respiratory syncytial virus, BSC-1, read-out: EC50 (50% effective concentration)) | EC90 ([5]; human respiratory syncytial virus, BSC-1, read-out: EC90 (90% effective concentration)) | Reduction in titre (plaque number) [6] | Toxicity to the cells ([1]; concentrations used in the experiment, FIG. 3B) | Inhibition of APV (luciferase reporter) ([2]; higher concentrations of ribavirin, FIG. 3A) |
| --- | --- | --- | --- | --- | --- | --- | --- | --- | --- | --- | --- | --- | --- |
| COc1c(C)c2c(c(O)c1C/C=C(\C)CCC(=O)O)C(=O)OC2 [MPA, mycophenolic acid] | not toxic | has antiviral activity | – | – | – | – | – | – | – | – | – | – | – |
| NC(=O)c1ncn([C@@H]2O[C@H](CO)[C@@H](O)[C@H]2O)n1 [ribavirin] | – | – | 3.1 to 6.2 mg/L | obvious inhibitory effect | 9 mg/L (≈ 36.9 µM) | 25.4 mg/L (≈ 104 µM) | undetectable | obvious inhibitory effect | 4.2 mg/L (≈ 17.2 µM) | 17.1 mg/L (≈ 70 µM) | 100 fold | not toxic | strongly inhibited |
